Measured values: publication PMC8692993, “PPARα and PPARγ activation is associated with pleural mesothelioma invasion but therapeutic inhibition is ineffective” (iScience, 2021)

Columns and labels:
[1] = tested on: angiopoietin-like 4 (Angptl4); experiment: Angptl4 immunohistochemistry of treated tumors; assay type: in vivo, BALB/c mice; conditions: GW6471- versus vehicle-treated tumors
Experimental: Tissues were fixed with 4% paraformaldehyde for 48–72 h and embedded in paraffin. 5 μm sections were cut by microtome (Thermo Fisher Scientific) and placed on Slide SuperFrost Plus White 1 mm (Thermo Fisher Scientific). Slides were deparaffinised as previously explained for hematoxylin and eosin staining. Antigen retrieval was performed with 10 mM citrate, pH6, at high pressure in a pressure cooker for 15 min and 5 min slow release. Sections were rinsed twice with TBST buffer (Tris-Buffer Saline with Tween, 20 mM Tris, 500 mM NaCl, and 0.05% Tween 20) for 5 min under agitation. Quench tissue peroxidase H2O2 was performed for 10 min at room temperature with 3% H2O2 in distilled H2O. The Vectastain® ABC kit, peroxidase (Rabbit IgG) (Vector Laboratories) was used for the following steps. Non-specific binding was performed with 1.5% Normal goat serum in PBS for 20 min at room temperature. Primary antibody Angptl4 (1:50) (409800, Invitrogen), was diluted in PBS/1.5% goat serum and incubated 1 h at room temperature. The secondary biotinylated anti-Rabbit IgG (1:200) (Vector Laboratories), was diluted in PBS and incubated for 30 min at room temperature. Vectastain ABC reagent (Vector Laboratories) was used as per manufacturer's instructions, mixing Reagent A with Reagent B (1:1) and incubating at room temperature 30 min prior use. […]

PPARα = biological target: T1, PPARα (Homo sapiens, UniProt Q07869); experiment: HG5LN reporter cell assay, PPARα-mediated transcription; assay type: cell-based; design: expressed in transfected cells; host or cells: HG5LN (HeLa-derived, GAL4RE-luciferase)
T1 sequence (Q07869 239-466 limits assumed): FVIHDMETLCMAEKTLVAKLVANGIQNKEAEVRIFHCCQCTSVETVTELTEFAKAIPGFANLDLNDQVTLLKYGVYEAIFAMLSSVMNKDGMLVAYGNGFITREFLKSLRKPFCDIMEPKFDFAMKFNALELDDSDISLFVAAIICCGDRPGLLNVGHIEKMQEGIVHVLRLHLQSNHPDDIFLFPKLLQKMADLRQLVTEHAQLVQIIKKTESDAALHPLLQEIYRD
Text: Nuclear receptors, including PPARα and γ, are ligand-inducible transcription factors that form heterodimers with retinoid X receptors and bind to specific DNA sites located in the enhancer/promoter region of target genes, releasing co-repressors and/or recruiting co-activators ([Wang, 2010]). We therefore assessed the functional consequences of the ligands on PPARα and γ-mediated transcriptional activation in reporter cell lines. These cell lines were generated as previously reported by a two-step transfection procedure ([Seimandi et al., 2005]). First, a stable cell line, HG5LN, expressing the reporter gene (GAL4RE-luciferase) was developed from the HeLa cell line. These cells were then transfected with a plasmid expressing the C-terminal ligand-binding domain of PPARα or γ fused to GAL4 DNA-binding domain. The parental HG5LN cells were used as a control to test non-specific modulation of luciferase expression by the small molecules investigated (Figure S4A). The HG5LN PPAR reporter cells therefore allow comparison of the functional activity at, and selectivity of different ligands for, PPARα and γ. […] As expected ([Abu Aboud et al., 2015]), GW6471 potently antagonized PPARα (Figure 4E and Table 1).
A transfected […] cell line HG5LN was used ([Balaguer et al., 2001]). These cells were cultured in Dubecco's modified Eagle's medium (DMEM-F12 Thermo Fisher Scientific) with phenol red and supplemented with 5% foetal calf serum, incubated at 37°C in a 5% CO2/95% air-humidified atmosphere. Luciferase assays were performed in DMEM-F12 (Thermo Fisher Scientific) without phenol red and supplemented with 5% dextran-coated charcoal-stripped FCS (test culture medium), puromycin (Thermo Fisher Scientific) 0.5 μg/mL and geneticin (Thermo Fisher Scientific) 1 mg/mL. Cells were seeded at a density of 5 x 10^4 cells/well and incubated for 8 h at 37°C in a 96-well plate white opaque tissue culture plates (Becton-Dickinson). Tested compounds were added in serial dilutions and incubated for 16 h at 37°C. After incubation, the medium containing the effectors was carefully removed and replaced by culture medium containing 3 x 10^−4 mol/L luciferin (Sigma Chemicals). After 5 min incubation at room temperature, the 96-well plate was then read with a Microbeta Wallac luminometer and the luminescence was measured in the living cells for 2 s. All experiments were performed in quadruplicate.

PPARγ = biological target: T2, PPARγ (Homo sapiens, UniProt P37231); design: expressed in transfected cells; host or cells: HG5LN (HeLa-derived, GAL4RE-luciferase); method as in Goldstein et al., 2017; conditions: an IC50 value was not reported, ref Goldstein et al., 2017, read-out: Functionality, Lit. IC50; cited from earlier work
T2 sequence (P37231 238-503 limits assumed): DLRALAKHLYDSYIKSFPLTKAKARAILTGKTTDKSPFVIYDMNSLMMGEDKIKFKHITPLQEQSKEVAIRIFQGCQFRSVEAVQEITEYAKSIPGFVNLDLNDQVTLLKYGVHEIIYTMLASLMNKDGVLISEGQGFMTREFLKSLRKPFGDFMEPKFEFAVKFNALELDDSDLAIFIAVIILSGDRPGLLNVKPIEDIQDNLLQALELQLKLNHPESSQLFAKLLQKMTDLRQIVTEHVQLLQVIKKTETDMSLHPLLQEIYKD

PPARδ = biological target: T3, PPARδ (Homo sapiens, UniProt Q03181); experiment: HG5LN reporter cell assay, PPARδ; assay type: cell-based; conditions: HG5LN PPARδ reporter cells
T3 construct: expressed in transfected cells; host or cells: HG5LN (HeLa-derived, GAL4RE-luciferase)
T3 sequence (Q03181 211-439 limits assumed): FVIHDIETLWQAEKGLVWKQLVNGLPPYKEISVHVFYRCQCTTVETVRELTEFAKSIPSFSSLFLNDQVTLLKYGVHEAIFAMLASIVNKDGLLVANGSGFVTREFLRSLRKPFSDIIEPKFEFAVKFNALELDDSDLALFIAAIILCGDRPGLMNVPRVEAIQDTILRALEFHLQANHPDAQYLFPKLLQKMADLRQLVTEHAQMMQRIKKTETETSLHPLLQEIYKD

## CCC(=O)NC[C@H](Cc1ccc(OCCc2nc(-c3ccccc3)oc2C)cc1)N/C(C)=C\C(=O)c1ccc(C(F)(F)F)cc1 [GW6471]
[1]
  Angptl4 staining in tumors: decreased staining of Angptl4
PPARα
  Functionality, Type: antagonist
PPARα; inhibition of agonism by 10 nM GW7647, 16 h incubation, mean of 3 experiments ± SEM
  IC50: 0.254 ± 0.096 µM
PPARγ
  IC50: < 1 µM
PPARδ
  Effect on PPARδ in reporter cell assay: no effect
